Where a SMILES comes first, the peptide text is derived from it. [ ]: non-standard residue; d: D form. Aib = CC(C)(N)C(=O)O
Tests used:
U937 cell line = test: Cell growth, cell counts (trypan blue exclusion); assay type: cell-based, human; settings: U937, 1 µM up to 30 µM, four days
Method: • Figure 1 Fluorescence Anisotropy Assay. Average anisotropy values: (open square) binding assay for increasing concentrations of Bcl-XL at a fixed concentration of fluorescent Bak-BH3 peptide. […] The error bars represent standard deviations observed from triplicate experiments. • Figure 2 072RB: cell growth effects. Panel A: Cell growth of U937 cell line treated for four days every 24 h at a 1 µM 072RB concentration and every 48 h at 3, 5, 10 and 30 µM 072RB concentrations. U937 controls at day 4, cell number: 350,000 ±50,000. Number of cells seeded at day 0: 20,000. Arrows indicate treatment time. […] All cells were counted in a Burker chamber and values are expressed as percentage of the untreated control cell number. Only living cells identified by trypan blue exclusion staining were counted. […] Flow cytometry measurements of DNA content (evaluated by propidium iodide (PI) fluorescence intensity) and physical cell side-scattering (evaluated by SSC) in U937 cells treated with Int and 072RB at 10 µM, twice each 48h. […] Three main cell populations can be observed in the bivariate PI/SSC plots, one with low SSC and normal DNA content (that accounts for "live" cells in culture), another with high SSC and normal DNA content (cells undergoing "early stage of apoptosis") and another one with lower PI fluorescence (cells at "late stage of apoptosis" and debris). […]

[1] = tested on: U937 and Jurkat cell lines; test: Detection of mitochondrial permeability transition (DiOC6 fluorescence); assay type: cell-based, human; settings: two cell lines, 4 days, 5 and 10 µM, two independent experiments
Bcl-XL = molecular target: T1, Bcl-XL (Homo sapiens, UniProt Q07817, S2L); test: Fluorescence anisotropy binding and competition binding assay; settings: competition binding assay: BakF-BH3 2E-8 M, competitor peptide 2E-7 M, Bcl-XL 2E-8 M to 1E-6 M; 45 min, 30°C; read-out: Weighted mean Kd
T1 construct: with the C-terminus truncated; His6; made in house; host or cells: Escherichia coli BL21 (pLys)
Method: Fluorescence Anisotropy was monitored with a Polarion Instrument (Tecan, Austria): excitation wavelength = 485 nm, emission wavelength = 535 nm. […] Anisotropy values were studied at a fixed concentration of fluoresceinated Bak BH3 molecule (2E-8 M), a fixed concentration of peptide inhibitors (2E-7 M) and increasing concentrations of Bel-XL (from 2E-8 M to 1E-6 M). Experiments were performed in 96-wells black non-binding plates (Corning), the experimental volume was always 200 µl / well. Reagents were mixed at room temperature and maintained at a constant temperature (30°C) during the measurements. Anisotropy measurements were performed at different times of incubation to assess the stability of the reactions. […]
For simple binding experiments we evaluated the Kd using a nonlinear regression analysis [NLIN SAS] to fit the Lundblad equation [38]. […]
We calculated the expected Anisotropy value solving a third degree equation obtained extending the simple binding equation to a competitive binding inhibition assay. […]
Point estimates of each equilibrium constant were evaluated using meta-analytical tools weighting each experimental result for its estimated variance. […]
Fluorescence Anisotropy (FA) is a quantitative technique to analyze the interaction of a smaller fluorescent molecule with a larger non fluorescent molecule. […]

T1 sequence (Q07817 1-212 S2L): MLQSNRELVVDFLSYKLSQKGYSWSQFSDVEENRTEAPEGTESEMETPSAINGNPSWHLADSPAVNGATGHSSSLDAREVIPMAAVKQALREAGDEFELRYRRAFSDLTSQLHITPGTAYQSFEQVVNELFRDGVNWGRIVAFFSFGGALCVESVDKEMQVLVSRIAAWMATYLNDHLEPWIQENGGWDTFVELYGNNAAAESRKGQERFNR

## CC[C@H](C)[C@H](NC(=O)[C@H](CCCNC(=N)N)NC(=O)[C@H](CCCNC(=N)N)NC(=O)[C@H](CC(C)C)NC(=O)[C@H](CCC(=O)O)NC(=O)[C@H](CCC(N)=O)NC(=O)C(C)(C)NC(=O)[C@@H](NC(=O)[C@H](Cc1ccc(O)cc1)NC(=O)[C@@H](NC(=O)[C@H](CCC(=O)O)NC(=O)[C@@H]1CCCN1C(=O)[C@H](CCCNC(=N)N)NC(=O)[C@H](CCSC)NC(=O)[C@@H](N)CC(=O)O)[C@@H](C)CC)[C@@H](C)CC)C(=O)NCC(=O)N[C@@H](CC(=O)O)C(=O)N[C@@H](C)C(=O)N[C@@H](Cc1ccccc1)C(=O)N[C@@H](CC(N)=O)C(=O)NC(C)(C)C(=O)N[C@@H](Cc1ccc(O)cc1)C(=O)N[C@@H](CCCCN)C(=O)N[C@@H](CCCCN)C(=O)N[C@@H](Cc1c[nH]c2ccccc12)C(=O)N[C@@H](CCCCN)C(=O)N[C@@H](CCSC)C(=O)N[C@@H](CCCNC(=N)N)C(=O)N[C@@H](CCCNC(=N)N)C(=O)N[C@@H](CC(N)=O)C(=O)N1CCC[C@H]1C(=O)N[C@@H](Cc1ccccc1)C(=O)N[C@@H](Cc1c[nH]c2ccccc12)C(=O)N[C@H](C(=O)N[C@@H](CCCCN)C(=O)N[C@H](C(=O)N[C@@H](CCC(N)=O)C(=O)N[C@@H](CCCNC(=N)N)C(N)=O)[C@@H](C)CC)[C@@H](C)CC [Peptide 072RB] (H-DMRPEIYI[Aib]QELRRIGDAFN[Aib]YKKWKMRRNPFWIKIQR-NH2; N-terminus and C-terminus assumed)
U937 cell line
  cell growth (cell counts): dose-dependent inhibition of cell growth
[1]
  MPT (reduced DiOC6 fluorescence): clear MPT effects
Bcl-XL
  Kd: 4.3 nM

From EP1985629A1, “Pro-apoptotic molecules and therapeutic uses thereof” (UNIVERSITA DEGLI STUDI DI GENOVA, priority 2007, dated 2008)
